Test results as given in ChEMBL document CHEMBL1155112, “Alkaloids from the leaves of Uncaria rhynchophylla and their inhibitory activity on NO production in lipopolysaccharide-activated microglia” (J Nat Prod, 2008).
The source made the active and inactive calls. No cut-off for these calls is given here.

Assays:
[1] = Inhibition of LPS-stimulated NO release in rat cortical microglial cells assessed as nitrite accumulation at 1 ug/ml after 48 hrs relative to LPS; assay type: functional; settings: Microglia, values are per cent of control
Microglia [2] = experiment: Cell viability of rat cortical microglial cells after 48 hrs by MTT assay; assay type: functional, cell-based
[3] = Inhibition of LPS-stimulated NO release in rat cortical microglial cells assessed as nitrite accumulation after 48 hrs; assay type: functional; settings: Microglia
[4] = Inhibition of LPS-stimulated NO release in rat cortical microglial cells assessed as nitrite accumulation at 10 ug/ml after 48 hrs relative to LPS; assay type: functional; settings: Microglia, values are per cent of control
Microglia [5] = experiment: Cell viability of LPS-stimulated rat cortical microglial cells after 48 hrs by MTT assay; assay type: functional, cell-based
[6] = Inhibition of LPS-stimulated NO release in rat cortical microglial cells assessed as nitrite accumulation at 100 ug/ml after 48 hrs relative to LPS; assay type: functional; settings: Microglia, values are per cent of control
[7] = Inhibition of NO release in LPS-stimulated rat cortical microglial cells assessed as nitrite accumulation at 30 uM after 48 hrs relative to LPS; assay type: functional; settings: Microglia, values are per cent of control
[8] = Inhibition of LPS-stimulated NO release in rat cortical microglial cells assessed as nitrite accumulation at 3 uM after 48 hrs relative to LPS; assay type: functional; settings: Microglia, values are per cent of control

Structure (SMILES)	response, % of control at 1 µg/mL [1] [%]	Activity (Microglia [2])	IC50 [3] [µM]	response, % of control at 10 µg/mL [4] [%]	Activity (Microglia [5])	response, % of control at 100 µg/mL [6] [%]	response, % of control at 30 µM [7] [%]	response, % of control at 3 µM [8] [%]
CC[C@H]1CN2CC[C@@]3(C(=O)Nc4ccccc43)[C@@H]2C[C@@H]1/C(=C\OC)C(=O)OC [ISORHYNCHOPHYLLINE]	95.2	inactive	19	76.9	inactive	42.1		
Oc1ccc(/C=C/c2cc(O)cc(O)c2)cc1 [RESVERATROL]			11.5	72.4			43.4	92
C=C[C@@H]1CN2CC[C@@]3(C(=O)Nc4ccccc43)[C@@H]2C[C@@H]1/C(=C\OC)C(=O)O	98.8	inactive	> 100	107	inactive	92.7		
C=C[C@H]1CN2CC[C@]3(C(=O)Nc4ccccc43)[C@@H]2C[C@@H]1/C(=C\OC)C(=O)OC [CORYNOXEINE]	86.9	inactive	15.7	74.5	inactive	37.9		
C=C[C@H]1CN2CC[C@@]3(C(=O)Nc4ccccc43)[C@@H]2C[C@@H]1/C(=C\OC)C(=O)OC [ISOCORYNOXEINE]	92.2	inactive	13.7	73.2	inactive	40.5		
C=C[C@@H]1CN2CC[C@]3(C(=O)Nc4ccccc43)[C@@H]2C[C@@H]1/C(=C\OC)C(=O)O [18,19-DEHYDROCORYNOXINIC ACID B]	81.9	inactive	> 100	84.2	inactive	88.9		
CC[C@H]1CN2CC[C@]3(C(=O)Nc4ccccc43)[C@@H]2C[C@@H]1/C(=C\OC)C(=O)OC [RHYNCHOPHYLLINE]	106	inactive	18.5	75.8	inactive	35.9		
C=C[C@H]1C(O[C@@H]2O[C@H](CO)[C@@H](O)[C@H](O)[C@H]2O)OC=C2C(=O)N3CCc4c([nH]c5ccccc45)[C@@H]3C[C@H]21 (stereo partly specified) [VINCOSIDE LACTAM]	71.8	inactive	16.4	65.7	inactive	38.6		
